Measured values: ChEMBL document CHEMBL4145513, “An overview on crystal structures of InhA protein: Apo-form, in complex with its natural ligands and inhibitors” (Eur J Med Chem, 2018)
In brackets after ≈: the same amount, converted by molar mass.

Experiments:
[1] = system: Mycobacterium tuberculosis; experiment: Antimycobacterial activity against Mycobacterium tuberculosis; format: functional
[2] = target: T1, Enoyl-[acyl-carrier-protein] reductase [NADH] (Mycobacterium tuberculosis, UniProt P9WGR1); experiment: Inhibition of Mycobacterium tuberculosis InhA
T1 sequence (P9WGR1 whole entry): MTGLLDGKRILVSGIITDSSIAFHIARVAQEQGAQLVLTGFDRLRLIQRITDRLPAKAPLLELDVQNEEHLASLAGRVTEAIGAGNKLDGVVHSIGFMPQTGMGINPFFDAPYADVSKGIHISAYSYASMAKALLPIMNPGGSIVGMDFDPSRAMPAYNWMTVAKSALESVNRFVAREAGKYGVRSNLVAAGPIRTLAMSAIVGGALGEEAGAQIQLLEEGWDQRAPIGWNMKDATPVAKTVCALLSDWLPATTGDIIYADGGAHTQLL

[3] = target: T1, Enoyl-[acyl-carrier-protein] reductase [NADH]; experiment: Binding affinity to Mycobacterium tuberculosis InhA in presence of NADH
[4] = target: T1, Enoyl-[acyl-carrier-protein] reductase [NADH]; experiment: Binding affinity to Mycobacterium tuberculosis InhA in presence of NAD+
[5] = target: T1, Enoyl-[acyl-carrier-protein] reductase [NADH]; experiment: Inhibition of Mycobacterium tuberculosis InhA using dodecenoyl-CoA as substrate in presence of NADH by fluorimetric analysis
[6] = target: T1, Enoyl-[acyl-carrier-protein] reductase [NADH]; experiment: Inhibition of Mycobacterium tuberculosis InhA using trans-2-dodecenoyl-CoA as substrate
[7] = target: T1, Enoyl-[acyl-carrier-protein] reductase [NADH]; experiment: Binding affinity to Mycobacterium tuberculosis InhA in presence of TCEP and NADH by isothermal titration calorimetry
[8] = target: T1, Enoyl-[acyl-carrier-protein] reductase [NADH]; experiment: Binding affinity to Mycobacterium tuberculosis InhA in presence of NADH by surface plasmon resonance assay
[9] = target: T1, Enoyl-[acyl-carrier-protein] reductase [NADH]; experiment: Binding affinity to Mycobacterium tuberculosis InhA in presence of NAD+ by surface plasmon resonance assay
[10] = system: Mycobacterium tuberculosis; experiment: Antimycobacterial activity against Mycobacterium tuberculosis after 5 days by fluoresence analysis; format: functional; conditions: 120 h
[11] = target: T1, Enoyl-[acyl-carrier-protein] reductase [NADH]
[12] = target: T1, Enoyl-[acyl-carrier-protein] reductase [NADH]; experiment: Inhibition of Mycobacterium tuberculosis InhA using trans-2-decenoyl-CoA as substrate by spectrophotometric analysis

## CCCCCCc1ccc(Oc2ccccc2C)c(O)c1
[1]
  MIC50: 10.9 µM (≈ 3.1 µg/mL)

## Oc1cc(CCc2ccccc2)ccc1Oc1ccc(Cl)cc1Cl
[2]
  IC50: 21 nM
[1]
  MIC50: 52 µM (≈ 18.7 µg/mL)

## CCCCCCc1ccc(Oc2ccccc2[N+](=O)[O-])c(O)c1
[1]
  MIC50: 39.6 µM (≈ 12.5 µg/mL)

## Cc1csc(C(C)(O)c2nnc(Nc3ccn(Cc4c(F)cccc4F)n3)s2)n1 (centres undefined)
[1]
  MIC50: 0.19 µM (≈ 0.0826 µg/mL)
[3]
  Kd: 11.5 nM
[4]
  Kd: 9300 nM
[5]
  IC50: 3 nM

## CCCCCCc1ccc(Oc2ccccc2C#N)c(O)c1
[2]
  Ki: 2.14 nM
[1]
  MIC50: 8.4 µM (≈ 2.48 µg/mL)

## CC1(C)CCC(Cc2cc(O)c(-c3ccccc3)c(=O)[nH]2)CC1
[1]
  MIC50: 0.08 µM (≈ 0.0249 µg/mL)
[6]
  IC50: 570 nM

## O=c1[nH]c(CC2CCCCC2)cc(O)c1-c1ccccc1
[1]
  MIC50: 0.31 µM (≈ 0.0878 µg/mL)
[6]
  IC50: 590 nM
[7]
  Kd: 560 nM

## Oc1cc(Cc2ccccc2)ccc1Oc1ccc(Cl)cc1Cl
[2]
  IC50: 51 nM
[1]
  MIC50: 27 µM (≈ 9.32 µg/mL)

## NC(=O)c1c[n+]([C@@H]2O[C@H](COP(=O)(O)OP(=O)(O)OC[C@H]3O[C@@H](n4cnc5c(N)ncnc54)[C@H](OP(=O)(O)O)[C@@H]3O)[C@@H](O)[C@H]2O)ccc1C(=O)c1ccncc1
[2]
  Ki: 130 nM

## CCCCc1ccnc(Cc2ccc(Oc3ccc(Cl)cc3Cl)c(O)c2)c1
[2]
  Ki: 1100 nM
[1]
  MIC99: 6.4 µM (≈ 2.57 µg/mL)

## CCCCCCc1ccc(Oc2ccccc2Cl)c(O)c1
[1]
  MIC50: 5.1 µM (≈ 1.55 µg/mL)

## Cc1ccn(C(C)c2nnc(Nc3ccn(Cc4c(F)cccc4Cl)n3)s2)n1 (centres undefined)
[2]
  Ki: 2 nM
[1]
  MIC50: 1 µM (≈ 0.418 µg/mL)

## CCCc1cc(C(=O)c2cc[n+]([C@@H]3O[C@H](COP(=O)(O)OP(=O)(O)OC[C@H]4O[C@@H](n5cnc6c(N)ncnc65)[C@H](O)[C@@H]4O)[C@@H](O)[C@H]3O)cc2C(N)=O)ccn1
[2]
  Ki: 2 nM
[1]
  MIC50: 2.7 µM

## CNC(=O)c1cnc(NC2CCN(c3ccccn3)CC2)c(NCc2ccc(F)c(Oc3ccccc3)c2)c1
[8]
  Kd: 250 nM
[9]
  Kd: > 100000 nM
[10]
  MIC50: 25 µM (≈ 13.2 µg/mL)
[11]
  IC50: 297 nM

## CNC(=O)CN(C(=O)Cc1ccc(-n2cccn2)cc1)C1CCN(c2ccccn2)CC1
[8]
  Kd: 36.8 nM
[9]
  Kd: > 100000 nM
[10]
  MIC50: 50 µM (≈ 21.6 µg/mL)
[11]
  IC50: 5900 nM

## Cc1cc(C)n(Cc2ccc(C(=O)NCc3ccc(F)cc3Cl)cc2)n1
[2]
  Ki: 50 nM
[1]
  MIC90: 10 µM (≈ 3.72 µg/mL)

## CNC(=O)[C@@H]1C[C@H](NC(=O)[C@@H](NC(=O)c2ccc(Cn3cccn3)cc2)[C@@H](C)OC(C)(C)C)CN1C(=O)c1ccccc1
[8]
  Kd: 55 nM
[9]
  Kd: 49000 nM
[10]
  MIC50: 0.13 µM (≈ 0.0765 µg/mL)
[11]
  IC50: 12000 nM

## CNC(=O)CN1CCN(C(=O)[C@H]2CC[C@@H](NC(=O)Cc3sc4ccccc4c3C)CC2)[C@@H](Cc2ccccc2)C1=O
[8]
  Kd: 340 nM
[9]
  Kd: 13400 nM
[10]
  MIC50: 13 µM (≈ 7.47 µg/mL)
[11]
  IC50: 65 nM

## CCc1cc(C(=O)c2cc[n+]([C@@H]3O[C@H](COP(=O)(O)OP(=O)(O)OC[C@H]4O[C@@H](n5cnc6c(N)ncnc65)[C@H](O)[C@@H]4O)[C@@H](O)[C@H]3O)cc2C(N)=O)ccn1
[2]
  Ki: 7 nM
[1]
  MIC50: 3 µM

## CCCCCc1ccc(Oc2ccc(Cl)cc2Cl)c(O)c1
[2]
  Ki: 11.8 nM
[1]
  MIC99: 3.5 µM (≈ 1.14 µg/mL)

## NC(=O)c1c[n+]([C@@H]2O[C@H](COP(=O)(O)OP(=O)(O)OC[C@H]3O[C@@H](n4cnc5c(N)ncnc54)[C@H](O)[C@@H]3O)[C@@H](O)[C@H]2O)ccc1C(=O)c1ccncc1
[12]
  Ki: 0.75 nM

## Cc1csc(C(C)(O)c2n[nH]/c(=N\C(=O)c3c(F)cccc3F)s2)n1 (centres undefined)
[1]
  MIC50: 3.75 µM (≈ 1.43 µg/mL)
[5]
  IC50: 200 nM

## CNC(=O)CN(Cc1ccc(F)cc1)C(=O)[C@H]1CC[C@@H](NC(=O)Cc2sc3ccccc3c2C)CC1
[8]
  Kd: 94 nM
[9]
  Kd: 46700 nM
[11]
  IC50: 600 nM

## CCCCCCc1ccc(Oc2ccccc2Br)c(O)c1
[2]
  IC50: 10 nM
[1]
  MIC50: 8.8 µM (≈ 3.07 µg/mL)

## Oc1cc(CC2CCCCC2)ccc1Oc1ccc(Cl)cc1Cl
[2]
  IC50: 110 nM
[1]
  MIC50: 27 µM (≈ 9.48 µg/mL)

## NNC(=O)c1ccncc1 [ISONIAZID]
[1]
  MIC: 1.8 µM (≈ 0.247 µg/mL)

## Oc1cc(Cl)ccc1Oc1ccc(Cl)cc1Cl [TRICLOSAN]
[1]
  MIC99: 43.1 µM (≈ 12.5 µg/mL)
